Source: ChEMBL document CHEMBL4295262, “Evaluation of the utility of stem-cell derived cardiomyocytes for drug proarrhythmic potential” (2019)

Experiments:
Details in all cases: human, ipsc-cm
[1] = (§1) Electrical activity assay on cell lines treated with a given drug. DMSO was used as a vehicle and a control, unblinded dofetilide was used as a control.; assay type: cell-based; set-up: APDc: unit not given here
[2] = as §1; assay type: ADME, cell-based; set-up: FPDc: unit not given here
[3] = as §1
[4] = as §1; assay type: ADME, cell-based
[5] = as §1; assay type: ADME, cell-based; set-up: FPDc: unit not given here; remark: listed apart in the source
[6] = as §1; remark: listed apart in the source
[7] = 0.003169 µM, concentration (um) 0.00316912 uM
[8] = 0.01001 µM, concentration (um) 0.0100144 uM
[9] = 0.03165 µM, concentration (um) 0.0316456 uM
[10] = 0.1 µM, concentration (um) 0.1 uM
[11] = 10 µM, concentration (um) 10 uM
[12] = 100 µM, concentration (um) 100 uM
[13] = 0.001 µM, concentration (um) 0.001 uM
[14] = 0.01 µM, concentration (um) 0.01 uM

Which APDc [1, 7] does the source give for `COc1cc(N)c(Cl)cc1C(=O)NC1CCN(CCCOc2ccc(F)cc2)CC1OC` (stereo not drawn) [CISAPRIDE] here?
Its APDc is 60.87.

What about the FPD measurement [1, 7] of the same molecule?
Its FPD measurement is 60.87 FPDc.

And the APDc [1, 8]?
Its APDc is 62.7.

And the FPD measurement [1, 8]?
The FPD measurement was 62.7 FPDc.

What about the APDc [1, 9] of the same molecule?
The APDc was 58.7.

And the FPD measurement [1, 9]?
The FPD measurement was 58.7 FPDc.

And the APDc [1, 10]?
The APDc was 92.05.

What about the FPD measurement [1, 10] of the same molecule?
The FPD measurement was 92.05 FPDc.

What about the FPDc [2, 7] of the same molecule?
The FPDc was 0.04125.

What about the FPDc [2, 8] of the same molecule?
The FPDc was 0.03941.

And the FPDc [2, 9]?
The FPDc was 0.04671.

What about the FPDc [2, 10] of the same molecule?
Its FPDc is 0.04762.

What about the FPD measurement ([3]; 0.003169 µM) of the same molecule?
Its FPD measurement is 1 Values Out Of 1 Were Excluded Due To Quiescence Or 0 Fpdc.

What about the FPDc ([3]; 0.003169 µM) of the same molecule?
Its FPDc is 1 Values Out Of 1 Were Excluded Due To Quiescence Or 0 Fpdc.

And the FPD measurement ([3]; 0.01001 µM)?
Its FPD measurement is 1 Values Out Of 1 Were Excluded Due To Quiescence Or 0 Fpdc.

What about the FPDc ([3]; 0.01001 µM) of the same molecule?
The FPDc was 1 Values Out Of 1 Were Excluded Due To Quiescence Or 0 Fpdc.

What about the FPD measurement ([3]; 0.03165 µM) of the same molecule?
Its FPD measurement is 1 Values Out Of 1 Were Excluded Due To Quiescence Or 0 Fpdc.

And the FPDc ([3]; 0.03165 µM)?
The FPDc was 1 Values Out Of 1 Were Excluded Due To Quiescence Or 0 Fpdc.

And the FPD measurement ([3]; 0.1 µM)?
Its FPD measurement is 1 Values Out Of 1 Were Excluded Due To Quiescence Or 0 Fpdc.

And the FPDc ([3]; 0.1 µM)?
Its FPDc is 1 Values Out Of 1 Were Excluded Due To Quiescence Or 0 Fpdc.

For `CC[C@H]1OC(=O)[C@H](C)[C@@H](O[C@H]2C[C@@](C)(OC)[C@@H](O)[C@H](C)O2)[C@H](C)[C@@H](O[C@@H]2O[C@H](C)C[C@H](N(C)C)[C@H]2O)[C@](C)(OC)C[C@@H](C)C(=O)[C@H](C)[C@@H](O)[C@]1(C)O` [CLARITHROMYCIN], which APDc [1, 10] is on record?
The APDc was 48.18.

What about the FPD measurement [1, 10] of the same molecule?
Its FPD measurement is 48.18 FPDc.

And the APDc ([1]; 1 µM, concentration (um) 1 uM)?
The APDc was 53.12.

What about the FPD measurement ([1]; 1 µM, concentration (um) 1 uM) of the same molecule?
Its FPD measurement is 53.12 FPDc.

And the APDc [1, 11]?
The APDc was 61.24.

What about the FPD measurement [1, 11] of the same molecule?
Its FPD measurement is 61.24 FPDc.

What about the APDc [1, 12] of the same molecule?
The APDc was 79.49.

And the FPD measurement [1, 12]?
Its FPD measurement is 79.49 FPDc.

What about the FPDc [2, 10] of the same molecule?
Its FPDc is 0.03502.

And the FPDc ([2]; 1 µM, concentration (um) 1 uM)?
Its FPDc is 0.03611.

And the FPDc [2, 11]?
Its FPDc is 0.04288.

And the FPDc [2, 12]?
The FPDc was 0.03271.

Which results are given for `COc1ccc(CCN(C)CCCC(C#N)(c2ccc(OC)c(OC)c2)C(C)C)cc1OC` (stereo not drawn) [VERAPAMIL]?
FPD measurement [4, 13]: 52.61 FPDc; FPDc [4, 13]: 6 Values Out Of 6 Were Excluded Due To Quiescence Or 0 Fpdc; FPD measurement [4, 14]: 58.45 FPDc; FPDc [4, 14]: 6 Values Out Of 6 Were Excluded Due To Quiescence Or 0 Fpdc; FPDc [4, 10]: 6 Values Out Of 6 Were Excluded Due To Quiescence Or 0 Fpdc; FPDc ([4]; 1 µM, concentration (um) 1 uM): 6 Values Out Of 6 Were Excluded Due To Quiescence Or 0 Fpdc; FPDc [2, 13]: 0.02679; FPDc [2, 14]: 0.03865; FPD measurement [2, 10]: More Than Half The Wells Had A Quiescence Event Or Fpdc Readings Of 0; FPDc [2, 10]: More Than Half The Wells Had A Quiescence Event Or Fpdc Readings Of 0; FPD measurement ([2]; 1 µM, concentration (um) 1 uM): More Than Half The Wells Had A Quiescence Event Or Fpdc Readings Of 0; FPDc ([2]; 1 µM, concentration (um) 1 uM): More Than Half The Wells Had A Quiescence Event Or Fpdc Readings Of 0; FPD measurement [5, 13]: 5 Values Out Of 5 Were Excluded Due To Quiescence Or 0 Apdc; FPDc [5, 13]: 48.96; FPD measurement [5, 14]: 5 Values Out Of 5 Were Excluded Due To Quiescence Or 0 Apdc; FPDc [5, 14]: 54.23; FPD measurement [5, 10]: 5 Values Out Of 5 Were Excluded Due To Quiescence Or 0 Apdc; FPDc [5, 10]: 56.48; FPD measurement ([5]; 1 µM, concentration (um) 1 uM): 5 Values Out Of 5 Were Excluded Due To Quiescence Or 0 Apdc; FPDc ([5]; 1 µM, concentration (um) 1 uM): 50.52; FPD measurement ([3]; 0.001 µM): 1 Values Out Of 1 Were Excluded Due To Quiescence Or 0 Fpdc; FPDc ([3]; 0.001 µM): 1 Values Out Of 1 Were Excluded Due To Quiescence Or 0 Fpdc; FPD measurement ([3]; 0.01 µM): 1 Values Out Of 1 Were Excluded Due To Quiescence Or 0 Fpdc; FPDc ([3]; 0.01 µM): 1 Values Out Of 1 Were Excluded Due To Quiescence Or 0 Fpdc; FPD measurement ([3]; 0.1 µM): 1 Values Out Of 1 Were Excluded Due To Quiescence Or 0 Fpdc; FPDc ([3]; 0.1 µM): 1 Values Out Of 1 Were Excluded Due To Quiescence Or 0 Fpdc; FPD measurement ([3]; 1 µM): 1 Values Out Of 1 Were Excluded Due To Quiescence Or 0 Fpdc; FPDc ([3]; 1 µM): 1 Values Out Of 1 Were Excluded Due To Quiescence Or 0 Fpdc

What does the source list for `COc1ccc([C@@H]2Sc3ccccc3N(CCN(C)C)C(=O)[C@@H]2OC(C)=O)cc1` [DILTIAZEM]?
APDc [1, 14]: 56.41; FPD measurement [1, 14]: 56.41 FPDc; APDc [1, 10]: 49.22; FPD measurement [1, 10]: 49.22 FPDc; APDc ([1]; 1 µM, concentration (um) 1 uM): 40.25; FPD measurement ([1]; 1 µM, concentration (um) 1 uM): 40.25 FPDc; APDc [1, 11]: 32.58; FPD measurement [1, 11]: 32.58 FPDc; FPDc [2, 14]: 0.0252; FPD measurement [2, 10]: More Than Half The Wells Had A Quiescence Event Or Fpdc Readings Of 0; FPDc [2, 10]: More Than Half The Wells Had A Quiescence Event Or Fpdc Readings Of 0; FPD measurement ([2]; 1 µM, concentration (um) 1 uM): More Than Half The Wells Had A Quiescence Event Or Fpdc Readings Of 0; FPDc ([2]; 1 µM, concentration (um) 1 uM): More Than Half The Wells Had A Quiescence Event Or Fpdc Readings Of 0; FPD measurement [2, 11]: More Than Half The Wells Had A Quiescence Event Or Fpdc Readings Of 0; FPDc [2, 11]: More Than Half The Wells Had A Quiescence Event Or Fpdc Readings Of 0; FPD measurement ([6]; 0.01 µM): 53.63 FPDc; FPDc ([6]; 0.01 µM): 53.63; FPD measurement ([6]; 0.1 µM): 45.42 FPDc; FPDc ([6]; 0.1 µM): 45.42; FPD measurement ([6]; 1 µM): 28.2 FPDc; FPDc ([6]; 1 µM): 28.2; FPD measurement ([6]; 10 µM): 13.87 FPDc; FPDc ([6]; 10 µM): 13.87
